Patent US9271971B2, “Pyrido[3,4-B]indoles and methods of use” (Medivation Technologies, Inc., priority 2009, dated 2016)

Tests used:
[1] = target: T1, human recombinant histamine H2 receptor (Homo sapiens, UniProt P25021); assay: Histamine H2 radioligand binding assay; conditions: [125I]Aminopotentidine specific binding; for inhibition at 1 µM: read-out: Percentage Inhibition, Histamine Binding (1 μM) H2
T1 construct: expressed in transfected cells; host or cells: Chinese hamster ovary (CHO) K1 cells
T1 sequence (P25021 whole entry): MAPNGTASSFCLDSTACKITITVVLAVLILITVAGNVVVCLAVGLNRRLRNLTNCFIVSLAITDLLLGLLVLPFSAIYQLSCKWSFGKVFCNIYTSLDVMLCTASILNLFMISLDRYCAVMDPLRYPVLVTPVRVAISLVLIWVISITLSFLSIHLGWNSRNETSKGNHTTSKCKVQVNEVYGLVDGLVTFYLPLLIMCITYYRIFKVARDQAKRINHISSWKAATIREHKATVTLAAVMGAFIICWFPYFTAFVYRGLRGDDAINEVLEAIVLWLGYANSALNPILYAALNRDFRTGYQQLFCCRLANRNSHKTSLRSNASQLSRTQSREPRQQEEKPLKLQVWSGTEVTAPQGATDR
Procedure: To evaluate in radioligand binding assays the activity of compounds of the invention, human recombinant histamine H2 receptor expressed in Chinese hamster ovary (CHO) K1 cells [Ruat, M., Proc. Natl. Acad. Sci. USA. (1990), 87(5):1658] in a 50 mM Phosphate buffer, pH 7.4 was used. Compounds of the invention were incubated with 0.1 nM [^125I]Aminopotentidine for 120 min. at 25° C. Non-specific binding was estimated in the presence of 3 μM Tiotidine. Receptor proteins were filtered and washed, the filters were then counted to determine [^125I]Aminopotentidine specifically bound. Compounds were screened at 1 μM or lower, using 1% DMSO as vehicle. Biochemical assay results are presented as the percent inhibition of specific binding in Table 2.

[2] = target: human recombinant histamine H1 receptor (Homo sapiens, UniProt P35367); assay: Histamine H1 radioligand binding assay; conditions: [3H]Pyrilamine specific binding; for inhibition at 1 µM: read-out: Percentage Inhibition, Histamine Binding (1 μM) H1
human recombinant histamine H1 receptor, sequence (P35367 whole entry): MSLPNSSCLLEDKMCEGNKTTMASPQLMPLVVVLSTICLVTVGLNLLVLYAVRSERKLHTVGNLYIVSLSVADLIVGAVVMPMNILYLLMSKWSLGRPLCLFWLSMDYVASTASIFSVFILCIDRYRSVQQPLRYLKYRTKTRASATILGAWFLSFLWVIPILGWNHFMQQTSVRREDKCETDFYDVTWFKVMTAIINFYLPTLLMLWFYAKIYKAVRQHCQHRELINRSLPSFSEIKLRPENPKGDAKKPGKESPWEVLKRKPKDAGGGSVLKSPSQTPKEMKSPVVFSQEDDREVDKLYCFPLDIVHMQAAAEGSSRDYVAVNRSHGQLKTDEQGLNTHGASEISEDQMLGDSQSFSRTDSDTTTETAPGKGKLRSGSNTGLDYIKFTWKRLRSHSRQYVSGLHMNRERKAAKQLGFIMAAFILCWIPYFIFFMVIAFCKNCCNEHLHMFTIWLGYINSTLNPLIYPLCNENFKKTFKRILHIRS
Procedure: To evaluate in radioligand binding assays the activity of compounds of the invention, human recombinant histamine H1 receptor expressed in Chinese hamster ovary (CHO) cells [De Backer, M. D. et al., Biochem. Biophys. Res. Comm. (1993), 197(3):1601] in a modified Tris-HCl buffer (50 mM Tris-HCl, pH 7.4, 2 mM MgCl2, 100 mM NaCl, 250 mM Sucrose) was used. Compounds of the invention were incubated with 1.2 nM [^3H]Pyrilamine for 180 min. at 25° C. Non-specific binding was estimated in the presence of 1 μM pyrilamine. Receptor proteins were filtered and washed, the filters were then counted to determine [^3H]Pyrilamine specifically bound. Compounds were screened at 1 μM or lower, using 1% DMSO as vehicle. Biochemical assay results are presented as the percent inhibition of specific binding in Table 2.

[3] = target: T2, human recombinant serotonin (5-Hydroxytryptamine) 5-HT6 receptor (Homo sapiens, UniProt P50406); assay: Serotonin 5-HT6 radioligand binding assay; conditions: [3H]LSD specific binding; for inhibition at 1 µM: read-out: Percent Inhibition of ligand binding, Serotonin (1 μM ligand concentration) 5-HT6
T2 construct: expressed in transfected cells; host or cells: human HeLa cells
T2 sequence (P50406 whole entry): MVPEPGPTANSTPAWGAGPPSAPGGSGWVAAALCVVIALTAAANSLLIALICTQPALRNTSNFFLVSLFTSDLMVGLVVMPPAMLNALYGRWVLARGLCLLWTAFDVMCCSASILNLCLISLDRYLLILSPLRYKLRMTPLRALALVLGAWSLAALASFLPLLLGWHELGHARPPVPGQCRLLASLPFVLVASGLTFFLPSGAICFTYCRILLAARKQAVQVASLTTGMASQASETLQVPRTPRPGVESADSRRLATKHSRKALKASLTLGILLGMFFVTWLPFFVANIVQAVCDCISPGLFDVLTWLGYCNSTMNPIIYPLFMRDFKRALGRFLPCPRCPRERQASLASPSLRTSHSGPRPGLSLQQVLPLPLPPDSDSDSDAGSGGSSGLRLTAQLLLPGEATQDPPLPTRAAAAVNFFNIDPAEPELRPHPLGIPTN
Procedure: To evaluate in radioligand binding assays the activity of compounds of the invention, human recombinant serotonin (5-Hydroxytryptamine) 5-HT6 receptor expressed in human HeLa cells [Monsma, F. J. Jr et al., Mol. Pharmacol. (1993), 43:320] in a modified Tris-HCl buffer (50 mM Tris-HCl, pH 7.4, 150 mM NaCl, 2 mM Ascorbic Acid, 0.001% BSA) was used. Compounds of the invention were incubated with 1.5 nM [3H]Lysergic acid diethylamide (LSD) for 120 min. at 37° C. Non-specific binding was estimated in the presence of 5 μM Serotonin (5-HT). Receptor proteins were filtered and washed, the filters were then counted to determine[3H]LSD specifically bound. Compounds were screened at 1 μM or lower, using 1% DMSO as vehicle. Biochemical assay results are presented as the percent inhibition of specific binding in Table 4.

[4] = target: human recombinant dopamine D2L receptor (Homo sapiens, UniProt P14416); assay: Dopamine D2L radioligand binding assay; conditions: [3H]Spiperone specific binding; for inhibition at 1 µM: read-out: Percent Inhibition of ligand binding, Dopamine (1 μM ligand conc.) D2L
human recombinant dopamine D2L receptor, sequence (P14416 whole entry): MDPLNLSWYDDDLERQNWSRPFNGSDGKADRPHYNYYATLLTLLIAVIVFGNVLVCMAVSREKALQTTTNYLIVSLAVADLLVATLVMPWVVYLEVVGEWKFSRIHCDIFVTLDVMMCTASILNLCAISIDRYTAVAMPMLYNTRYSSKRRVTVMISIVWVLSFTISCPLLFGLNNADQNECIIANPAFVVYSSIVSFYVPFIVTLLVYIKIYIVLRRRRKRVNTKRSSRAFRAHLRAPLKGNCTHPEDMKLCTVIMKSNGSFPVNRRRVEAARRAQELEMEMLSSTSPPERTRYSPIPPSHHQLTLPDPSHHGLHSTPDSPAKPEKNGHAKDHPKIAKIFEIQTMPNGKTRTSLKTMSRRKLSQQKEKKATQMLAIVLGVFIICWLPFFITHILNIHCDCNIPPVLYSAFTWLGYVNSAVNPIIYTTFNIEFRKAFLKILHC
Procedure: To evaluate in radioligand binding assays the activity of compounds of the invention, human recombinant dopamine D2L receptor expressed in Chinese hamster ovary (CHO) cells [Grandy, D. K. et al. Proc. Natl. Acad. Sci. USA. (1989), 86:9762; Hayes, G. et al., Mol. Endocrinol. (1992), 6:920] in a modified Tris-HCl buffer (50 mM Tris-HCl, pH 7.4, 1.4 mM Ascorbic Acid, 0.001% BSA, 150 mM NaCl) was used. Compounds of the invention were incubated with 0.16 nM [^3H]Spiperone for 120 min. at 25° C. Non-specific binding was estimated in the presence of 10 μM Haloperidol. Receptor proteins were filtered and washed, the filters were then counted to determine [^3H]Spiperone specifically bound. Compounds were screened at 1 μM or lower, using 1% DMSO as vehicle. Biochemical assay results are presented as the percent inhibition of specific binding in Table 3.

[5] = target: T3, human recombinant adrenergic α2B receptor (Homo sapiens, UniProt P18089); assay: Adrenergic α2B radioligand binding assay; conditions: [3H]Rauwolscine specific binding; for inhibition at 1 µM: read-out: Percent Inhibition of ligand binding, Adrenergic (1 μM ligand conc.) α2B; for inhibition at 0.1 µM: read-out: Percent Inhibition of ligand binding, Adrenergic (0.1 μM ligand conc.) α2B
T3 construct: expressed in transfected cells; host or cells: Chinese hamster ovary (CHO-K1) cells
T3 sequence (P18089 1-450): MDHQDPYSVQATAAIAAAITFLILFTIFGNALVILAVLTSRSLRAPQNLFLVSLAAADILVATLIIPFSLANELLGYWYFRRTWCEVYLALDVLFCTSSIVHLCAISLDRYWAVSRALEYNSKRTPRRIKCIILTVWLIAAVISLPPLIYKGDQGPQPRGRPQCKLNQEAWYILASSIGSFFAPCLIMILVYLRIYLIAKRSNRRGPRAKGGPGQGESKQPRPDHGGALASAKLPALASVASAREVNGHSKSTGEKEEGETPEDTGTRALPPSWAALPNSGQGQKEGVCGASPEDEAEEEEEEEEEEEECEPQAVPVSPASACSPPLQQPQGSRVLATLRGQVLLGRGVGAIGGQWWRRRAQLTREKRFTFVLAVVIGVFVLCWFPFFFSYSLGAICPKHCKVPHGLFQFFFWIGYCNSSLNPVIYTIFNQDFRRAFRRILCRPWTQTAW
Procedure: To evaluate in radioligand binding assays the activity of compounds of the invention, human recombinant adrenergic α2B receptor expressed in Chinese hamster ovary (CHO-K1) cells [Uhlen, S et al., Eur J Pharmacol. (1998), 343(1):93] in a modified Tris-HCl buffer (50 mM Tris-HCl, pH 7.4, 12.5 mM MgCl2, 1 mM EDTA, 0.2% BSA) was used. Compounds of the invention were incubated with 2.5 nM [^3H]Rauwolscine for 60 min. at 25° C. Non-specific binding was estimated in the presence of 10 μM Prozosin. Receptor proteins were filtered and washed, the filters were then counted to determine [^3H]Rauwolscine specifically bound. Compounds were screened at 1 μM or lower, using 1% DMSO as vehicle. Compounds of the invention were tested in this biochemical assay. Biochemical assay results for representative compounds were presented as the percent inhibition of specific binding in Table 3.

| Structure (SMILES) | inhibition at 1 µM [1] [%] | inhibition at 1 µM [2] [%] | inhibition at 1 µM [3] [%] | inhibition at 1 µM [4] [%] | inhibition at 1 µM ([5]; 1 μM) [%] | inhibition at 0.1 µM [5] [%] | Percentage Inhibition, Histamine Binding (1 μM) H2 ([1]; 1 µM) [%] | Percentage Inhibition, Histamine Binding (1 μM) H1 [2] [%] | Percent Inhibition of ligand binding, Serotonin (1 μM ligand concentration) 5-HT6 [3] [%] | Percent Inhibition of ligand binding, Dopamine (1 μM ligand conc.) D2L [4] [%] | Percent Inhibition of ligand binding, Adrenergic (1 μM ligand conc.) α2B ([5]; 1 μM) [%] |
| --- | --- | --- | --- | --- | --- | --- | --- | --- | --- | --- | --- |
| COc1ccc(/C(C)=C/n2c3c(c4cc(C)ccc42)C2CCN(C3)C2)cc1F (stereo not shown) [Compound 41] | 24 | 21 | 48 | 17 |  |  |  |  |  |  |  |
| Cc1ccc2c(c1)c1c(n2CC(C)(O)c2ccc(F)cc2)CN2CCC1C2 (stereo not shown) [Compound 2] | 8 | 21 | 58 | 7 | 84 |  |  |  |  |  |  |
| C/C(=C\n1c2c(c3cc(C)ccc31)C1CCN(C2)C1)c1ccc(Cl)cc1 (stereo not shown) [Compound 32] | 82 | 85 | 97 | -12 | 98 | 56 |  |  |  |  |  |
| Cc1ccc2c(c1)c1c(n2CC(=O)c2ccccc2)CN2CCC1C2 (stereo not shown) [Compound 21] | -6 | 40 | 29 | -2 | 20 |  |  |  |  |  |  |
| Cc1ccc2c(c1)c1c(n2CCc2ccc(C(F)(F)F)nc2)CN2CCC1C2 (stereo not shown) [Compound 1] | 0 | 32 | 10 | 8 | 7 |  |  |  |  |  |  |
| Cc1ccc2c(c1)c1c(n2CC(=O)c2ccc(F)cc2)CN2CCC1C2 (stereo not shown) [Compound 28] | 18 | 64 | 15 | 1 | 45 |  |  |  |  |  |  |
| COc1ccc(C(O)Cn2c3c(c4cc(C)ccc42)C2CCN(C3)C2)cc1F (stereo not shown) [Compound 6] | -5 | 86 | 22 | -1 | 73 |  |  |  |  |  |  |
| Cc1ccc2c(c1)c1c(n2CC(C)(O)c2ccc(F)c(Cl)c2)CN2CCC1C2 (stereo not shown) [Compound 18] | 16 | 21 | 49 | -1 | 107 |  |  |  |  |  |  |
| C/C(=C\n1c2c(c3cc(C)ccc31)C1CCN(C2)C1)c1ccc(Cl)cc1Cl (stereo not shown) [Compound 34] |  |  |  |  |  |  | 40 | 34 | 21 | 0 | 55 |
| Cc1ccc(C(O)Cn2c3c(c4cc(C)ccc42)C2CCN(C3)C2)cc1 (stereo not shown) [Compound 5] | 4 | 48 | 14 | 6 | 78 |  |  |  |  |  |  |
| Cc1ccc2c(c1)c1c(n2C(=O)Cc2ccc(F)cc2)CN2CCC1C2 (stereo not shown) [Compound 43] | 7 | 16 | 7 | 11 |  |  |  |  |  |  |  |
| COc1ccc(/C(C)=C/n2c3c(c4cc(C)ccc42)C2CCN(C3)C2)cc1 (stereo not shown) [Compound 45] | 21 | 26 | 80 | -2 |  | 15 |  |  |  |  |  |
| C/C(=C/n1c2c(c3cc(C)ccc31)C1CCN(C2)C1)c1ccccc1F (stereo not shown) [Compound 37] | 22 | 78 | 70 | 5 |  |  |  |  |  |  |  |
| Cc1ccc2c(c1)c1c(n2CCc2nc(-c3ccccc3)cs2)CN2CCC1C2 (stereo not shown) [Compound 19] | -9 | 82 | 9 | -2 | 61 |  |  |  |  |  |  |
| Cc1ccc2c(c1)c1c(n2CC(=O)c2ccc(Cl)cc2)CN2CCC1C2 (stereo not shown) [Compound 29] | 19 | 56 | 32 | 0 | 58 |  |  |  |  |  |  |
| Cc1ccc(C(C)(O)Cn2c3c(c4cc(C)ccc42)C2CCN(C3)C2)cc1 (stereo not shown) [Compound 20] | 2 | 21 | 13 | 9 | 97 |  |  |  |  |  |  |
| C/C(=C\n1c2c(c3cc(C)ccc31)C1CCN(C2)C1)c1ccc(F)cc1 (stereo not shown) [Compound 22] | 15 | 52 | 102 | 21 | 95 |  |  | 58 |  | 25 |  |
| Cc1ccc2c(c1)c1c(n2CC(=O)N2CCOCC2)CN2CCC1C2 (stereo not shown) [Compound 26] | -1 | 17 | 4 | 10 | 7 |  |  |  |  |  |  |
| C/C(=C\n1c2c(c3cc(C)ccc31)C1CCN(C2)C1)c1ccc(Cl)c(Cl)c1 (stereo not shown) [Compound 40] | 39 | 57 | 12 | 6 |  |  |  |  |  |  |  |
| Cc1ccc2c(c1)c1c(n2C#Cc2ccc(Cl)cc2)CN2CCC1C2 (stereo not shown) [Compound 35] | 19 | 0 | 12 | -6 |  |  |  |  |  |  |  |
| C/C(=C\n1c2c(c3cc(C)ccc31)C1CCN(C2)C1)c1ccc(F)c(F)c1 (stereo not shown) [Compound 39] | 20 | 26 | 81 | 0 |  |  |  |  |  |  |  |
| C/C(=C\n1c2c(c3cc(C)ccc31)C1CCN(C2)C1)c1cccnc1 (stereo not shown) [Compound 42] | 1 | 20 | 26 | -10 |  |  |  |  |  |  |  |
